One test addresses T1, A1R (Homo sapiens, UniProt P30542).
T1 sequence (P30542 1-326): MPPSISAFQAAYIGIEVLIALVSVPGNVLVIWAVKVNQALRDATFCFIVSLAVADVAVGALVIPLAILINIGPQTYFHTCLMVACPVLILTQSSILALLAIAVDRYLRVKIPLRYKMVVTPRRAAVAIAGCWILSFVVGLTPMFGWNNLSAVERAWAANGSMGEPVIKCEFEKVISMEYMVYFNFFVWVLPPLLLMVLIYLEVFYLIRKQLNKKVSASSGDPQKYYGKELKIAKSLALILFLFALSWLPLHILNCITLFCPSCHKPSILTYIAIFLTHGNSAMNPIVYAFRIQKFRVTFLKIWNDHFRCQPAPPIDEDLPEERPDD
The experiment in a line: Activity assay of adenosine receptor modulators, A1R cAMP (Table 1). In kind it is cell-based. The procedure: (§1) Compounds (e.g., adenosine receptor modulators) were tested for its biological activity. The assay results in Table 1 indicate (+ means >1 μM; ++ means 100 nM to 1 μM; +++ means <100 nM).

A further test concerns the target T2, Adenosine A2B Receptor (Homo sapiens, UniProt P29275).
T2 sequence (P29275 1-332): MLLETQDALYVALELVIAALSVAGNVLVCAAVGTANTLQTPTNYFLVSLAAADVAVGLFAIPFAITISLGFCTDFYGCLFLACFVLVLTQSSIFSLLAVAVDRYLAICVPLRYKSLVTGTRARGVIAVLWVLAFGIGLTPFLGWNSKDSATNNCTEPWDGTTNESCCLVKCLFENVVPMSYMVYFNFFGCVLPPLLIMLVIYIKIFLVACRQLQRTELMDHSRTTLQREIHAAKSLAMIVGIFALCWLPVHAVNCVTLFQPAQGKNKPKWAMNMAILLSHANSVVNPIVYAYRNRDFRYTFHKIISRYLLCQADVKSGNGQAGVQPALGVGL
The experiment in a line: Activity assay of adenosine receptor modulators, Adenosine A2B Receptor (Table 1). In kind it is biochemical. As to conditions: cAMP; read-out: A2BR cAMP IC50. The procedure:
as §1

In another test the target is T3, A3R (Homo sapiens, UniProt P0DMS8).
T3 sequence (P0DMS8 1-318): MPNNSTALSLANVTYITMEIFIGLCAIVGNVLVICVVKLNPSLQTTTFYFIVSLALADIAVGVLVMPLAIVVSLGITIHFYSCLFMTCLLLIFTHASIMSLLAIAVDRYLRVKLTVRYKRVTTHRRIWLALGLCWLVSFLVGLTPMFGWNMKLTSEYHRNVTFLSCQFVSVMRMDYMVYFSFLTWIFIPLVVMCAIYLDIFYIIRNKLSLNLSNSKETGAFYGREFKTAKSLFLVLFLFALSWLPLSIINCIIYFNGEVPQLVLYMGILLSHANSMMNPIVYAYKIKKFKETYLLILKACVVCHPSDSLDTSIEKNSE
The test can be described thus: Activity assay of adenosine receptor modulators, A3R cAMP (Table 1). In kind it is cell-based. The procedure: as §1

Another test concerns the target Adenosine A2A Receptor (Homo sapiens, UniProt P29274). The test can be described thus: Activity assay of adenosine receptor modulators, Adenosine A2A Receptor (Table 1). It is filed as biochemical. As to conditions: cAMP; read-out: A2AR cAMP IC50. The procedure:
as §1

Adenosine A2A Receptor, sequence (P29274 whole entry): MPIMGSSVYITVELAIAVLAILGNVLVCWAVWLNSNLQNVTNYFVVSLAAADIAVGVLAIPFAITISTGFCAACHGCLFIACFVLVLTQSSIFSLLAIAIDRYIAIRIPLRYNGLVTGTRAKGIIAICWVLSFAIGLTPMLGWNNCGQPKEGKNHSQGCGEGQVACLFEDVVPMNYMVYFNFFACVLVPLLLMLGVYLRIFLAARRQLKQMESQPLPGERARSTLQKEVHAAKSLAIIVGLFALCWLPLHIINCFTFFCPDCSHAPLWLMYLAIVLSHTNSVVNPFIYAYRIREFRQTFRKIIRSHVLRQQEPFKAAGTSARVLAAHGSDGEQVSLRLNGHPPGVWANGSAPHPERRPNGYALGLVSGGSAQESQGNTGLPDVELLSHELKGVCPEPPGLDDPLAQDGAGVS

For `Cc1nc2nc(N[C@@H](C)c3cncc(F)c3)nc(C(=O)N3CC(NC(=O)C4(C(F)(F)F)CC4)C3)c2s1` [Example 70, (S)—N-(1-(5-((1-(5-Fluoropyridin-3-yl)ethyl)amino)-2-methylthiazolo[4,5-d]pyrimidine-7-carbonyl)azetidin-3-yl)-1-(trifluoromethyl)cyclopropane-1-carboxamide], the IC50 was greater than 1000 nM on A1R, less than 100 nM on Adenosine A2B Receptor, 100 to 1000 nM at A3R and less than 100 nM at Adenosine A2A Receptor.
For the molecule `Cc1nc2nc(N[C@@H](C)c3cccnc3)nc(C(=O)N3CC(NC(=O)c4ccoc4)C3)c2s1` [Example 80, N-[1-[2-Methyl-5-[[(S)-1-(3-pyridyl)ethyl]amino]thiazolo[4,5-d]pyrimidine-7-carbonyl]azetidin-3-yl]furan-3-carboxamide], the half-inhibitory concentration (IC50) on A1R was greater than 1000 nM; at Adenosine A2B Receptor, 100 to 1000 nM; at A3R, greater than 1000 nM; on Adenosine A2A Receptor it was less than 100 nM.
On to `Cc1nc2nc(N[C@@H](C)c3cncc(F)c3)nc(C(=O)NCCC3CCNCC3)c2s1` [Example 32, (S)-5-((1-(5-Fluoropyridin-3-yl)ethyl)amino)-2-methyl-N-(2-(piperidin-4-yl)ethyl)thiazolo[4,5-d]pyrimidine-7-carboxamide], for which the 50% inhibitory concentration (IC50) against A1R was greater than 1000 nM; on Adenosine A2B Receptor, less than 100 nM; against A3R, greater than 1000 nM; at Adenosine A2A Receptor it was greater than 1000 nM.
For `Cc1nc2nc(N[C@@H](C)c3ccccn3)nc(C(=O)N3CCC3)c2s1` [Example 8, (S)-Azetidin-1-yl(2-methyl-5-((1-(pyridin-2-yl)ethyl)amino)thiazolo[4,5-d]pyrimidin-7-yl)methanone], the IC50 at A1R was greater than 1000 nM; at Adenosine A2B Receptor, less than 100 nM; on A3R it was 100 to 1000 nM; on Adenosine A2A Receptor, 100 to 1000 nM.
Turning to `Cc1nc2nc(N[C@@H](C)c3cncc(F)c3)nc(C(=O)N3CC[C@H](O)C3)c2s1` [Example 4, (5-(((S)-1-(5-Fluoropyridin-3-yl)ethyl)amino)-2-methylthiazolo[4,5-d]pyrimidin-7-yl)((S)-3-hydroxypyrrolidin-1-yl)methanone], the IC50 on A1R was greater than 1000 nM; on Adenosine A2B Receptor, less than 100 nM; at A3R, greater than 1000 nM; at Adenosine A2A Receptor it was greater than 1000 nM.
On to `Cc1nc2nc(N[C@@H](C)c3cncc(F)c3)nc(C(=O)N3CC(NC(=O)NC(C)(C)C)C3)c2s1` [Example 57, (S)-1-(tert-Butyl)-3-(1-(5-((1-(5-fluoropyridin-3-yl)ethyl)amino)-2-methylthiazolo[4,5-d]pyrimidine-7-carbonyl)azetidin-3-yl)urea], for which the 50% inhibitory concentration (IC50) on A1R is greater than 1000 nM; at Adenosine A2B Receptor, less than 100 nM; against A3R, 100 to 1000 nM; at Adenosine A2A Receptor, less than 100 nM.
Regarding `Cc1nc2nc(N[C@@H](C)c3cncc(F)c3)nc(C(=O)NCCc3ccc(O)cc3)c2s1` [Example 21, (S)-5-((1-(5-Fluoropyridin-3-yl)ethyl)amino)-N-(4-hydroxyphenethyl)-2-methylthiazolo[4,5-d]pyrimidine-7-carboxamide], the IC50 was greater than 1000 nM at A1R, less than 100 nM on Adenosine A2B Receptor, greater than 1000 nM against A3R and greater than 1000 nM at Adenosine A2A Receptor.
With `CO[C@H]1CCN(C(=O)c2nc(N[C@@H](C)c3cncc(F)c3)nc3nc(C)sc23)C1` [Example 41, (5-(((S)-1-(5-Fluoropyridin-3-yl)ethyl)amino)-2-methylthiazolo[4,5-d]pyrimidin-7-yl)((S)-3-methoxypyrrolidin-1-yl)methanone], the half-inhibitory concentration (IC50) against A1R was greater than 1000 nM; at Adenosine A2B Receptor, less than 100 nM; against A3R, greater than 1000 nM; at Adenosine A2A Receptor, greater than 1000 nM.
For the molecule `CC(=O)NC[C@@H]1CCN(C(=O)c2nc(N[C@@H](C)c3cncc(F)c3)nc3nc(C)sc23)C1` [Example 52, N—(((S)-1-(5-(((S)-1-(5-Fluoropyridin-3-yl)ethyl)amino)-2-methylthiazolo[4,5-d]pyrimidine-7-carbonyl)pyrrolidin-3-yl)methyl)acetamide], the IC50 is greater than 1000 nM against A1R, less than 100 nM at Adenosine A2B Receptor, greater than 1000 nM on A3R and greater than 1000 nM on Adenosine A2A Receptor.
As for `CC(=O)N[C@H]1CCN(C(=O)c2nc(N[C@@H](C)c3cncc(F)c3)nc3nc(C)sc23)C1` [Example 29, N—((S)-1-(5-(((S)-1-(5-Fluoropyridin-3-yl)ethyl)amino)-2-methylthiazolo[4,5-d]pyrimidine-7-carbonyl)pyrrolidin-3-yl)acetamide], the concentration for half-maximal inhibition (IC50) at A1R is greater than 1000 nM; on Adenosine A2B Receptor, less than 100 nM; against A3R, 100 to 1000 nM; at Adenosine A2A Receptor it was 100 to 1000 nM.
Turning to `Cc1nc2nc(N[C@@H](C)c3cccnc3)nc(C(=O)N3CC(NC(=O)C4CCC4)C3)c2s1` [Example 75, N-[1-[2-Methyl-5-[[(S)-1-(3-pyridyl)ethyl]amino]thiazolo[4,5-d]pyrimidine-7-carbonyl]azetidin-3-yl]cyclobutanecarboxamide], the IC50 at A1R is greater than 1000 nM; on Adenosine A2B Receptor, 100 to 1000 nM; on A3R it was greater than 1000 nM; at Adenosine A2A Receptor it was less than 100 nM.
As for `Cc1nc2nc(N[C@@H](C)c3cncc(F)c3)nc(C(=O)NC[C@@H](C)O)c2s1` [Example 3, 5-(((S)-1-(5-Fluoropyridin-3-yl)ethyl)amino)-N—((R)-2-hydroxypropyl)-2-methylthiazolo[4,5-d]pyrimidine-7-carboxamide], the IC50 against A1R is 100 to 1000 nM; on Adenosine A2B Receptor, less than 100 nM; against A3R, 100 to 1000 nM; at Adenosine A2A Receptor, 100 to 1000 nM.
With `Cc1nc2nc(N[C@@H](C)c3cncc(F)c3)nc(C(=O)N3CC(C(N)=O)C3)c2s1` [Example 33, (S)-1-(5-((1-(5-Fluoropyridin-3-yl)ethyl)amino)-2-methylthiazolo[4,5-d]pyrimidine-7-carbonyl)azetidine-3-carboxamide], the IC50 is greater than 1000 nM on A1R, less than 100 nM at Adenosine A2B Receptor, greater than 1000 nM against A3R and greater than 1000 nM on Adenosine A2A Receptor.
`Cc1nc2nc(N[C@@H](C)c3cccnc3)nc(C(=O)N3CC[C@@H](O)C3)c2s1` [Example 16, ((R)-3-Hydroxypyrrolidin-1-yl)(2-methyl-5-(((S)-1-(pyridin-3-yl)ethyl)amino)thiazolo[4,5-d]pyrimidin-7-yl)methanone]: the IC50 is greater than 1000 nM at A1R, less than 100 nM on Adenosine A2B Receptor, greater than 1000 nM on A3R and greater than 1000 nM on Adenosine A2A Receptor.
Consider `Cc1nc2nc(N[C@@H](C)c3cncc(F)c3)nc(C(=O)N3CC(C(=O)N(C)C)C3)c2s1` [Example 26, (S)-1-(5-((1-(5-Fluoropyridin-3-yl)ethyl)amino)-2-methylthiazolo[4,5-d]pyrimidine-7-carbonyl)-N,N-dimethylazetidine-3-carboxamide], for which the IC50 was less than 100 nM on Adenosine A2B Receptor and greater than 1000 nM on Adenosine A2A Receptor.
The like results for `Cc1nc2nc(N[C@@H](C)c3ccccn3)nc(C(=O)N3CC[C@@H](O)C3)c2s1` [Example 19, ((R)-3-Hydroxypyrrolidin-1-yl)(2-methyl-5-(((S)-1-(pyridin-2-yl)ethyl)amino)thiazolo[4,5-d]pyrimidin-7-yl)methanone] were, in that order, less than 100 nM and greater than 1000 nM.
For `Cc1nc2nc(N[C@@H](C)c3cncc(F)c3)nc(C(=O)N3CCN(C(=O)NC(C)(C)C)C3)c2s1` [Example 35, (S)—N-(tert-Butyl)-3-(5-((1-(5-fluoropyridin-3-yl)ethyl)amino)-2-methylthiazolo[4,5-d]pyrimidine-7-carbonyl)imidazolidine-1-carboxamide], the IC50 at Adenosine A2B Receptor and on Adenosine A2A Receptor was 100 to 1000 nM in each case.
Take `Cc1nc2nc(N[C@@H](C)c3cccnc3)nc(C(=O)N[C@@H](C)c3cccnc3)c2s1` [Example 27, 2-Methyl-N—((S)-1-(pyridin-3-yl)ethyl)-5-(((S)-1-(pyridin-3-yl)ethyl)amino)thiazolo[4,5-d]pyrimidine-7-carboxamide]: the concentration for half-maximal inhibition (IC50) on Adenosine A2B Receptor and on Adenosine A2A Receptor was 100 to 1000 nM each time.
As for `C[C@H](Nc1nc(C(=O)N2CCCC2)c2sc(N)nc2n1)c1cccnc1` [Example 20, (S)-(2-Amino-5-((1-(pyridin-3-yl)ethyl)amino)thiazolo[4,5-d]pyrimidin-7-yl)(pyrrolidin-1-yl)methanone], the half-inhibitory concentration (IC50) is 100 to 1000 nM at Adenosine A2B Receptor and greater than 1000 nM on Adenosine A2A Receptor.
